Assay results reported in patent US20050171215A1, “Germicidal compositions containing halogenated phthalaldehyes, and methods of using such compositions for disinfection or sterilization” (Ethicon, Inc., priority 2004, published 2005).
Where two headings read alike, the source gives them in different places.

Columns and labels:
[1] = test system: Mycobacterium terrae bacteria; assay: bacterial suspension test; assay type: cell-based; conditions: for Germicidal Efficacy: summary Table 14
Procedure: In Examples 1 to 3, which follow, several germicidal solutions containing either the 4-fluoro-, 4-chloro-, or 4-bromo-phthalaldehyde compound were tested to determine their effectiveness in killing at least 1×10^6/mL of Mycobacterium terrae bacteria using a bacterial suspension test. The bacterial suspension test that was employed is described in Section VII.
The solutions were prepared by adding the appropriate amounts of the germicidal compounds to an aqueous solution. Unless otherwise mentioned all concentrations reported herein are expressed in (w/v)%. The pH of the solution was not adjusted. The tests were conducted at a temperature of about 20° C. (room temperature). The results are presented in terms of log reductions/mL. It is understood that these examples, as well as the other examples herein, are to be construed as merely illustrative, and not limiting.
In this test method, 9 mL of the germicide to be tested is placed in a tube, put into a water bath and allowed to come to the desired temperature. One mL of the test organism, including at least 7 logs/mL of Mycobacterium terrae bacteria, is added to the 9 mL of the germicide to be tested. […] It will be appreciated by those skilled in the art that other concentrations may be utilized by proper dilution and accounting.
At appropriate time intervals, 1 mL aliquots of the germicide-cell suspension were removed and added directly into 9 mL of a 1% glycine solution (neutralizer) and mixed thoroughly to neutralize the germicide in the transferred suspension. The glycine solution was prepared from solid glycine, which is available from VWR Scientific Products, among others. The above-identified 10 mL neutralized solution was then poured through a membrane filter having an average pore size of 0.45 micrometers. The filter was then rinsed twice with at least 150 mL of the 1% glycine solution per rinse. The filter was then placed on an agar plate and incubated for twenty-one days at 37° C. In the above procedure, if dilution was needed, then the 1 mL germicidal-cell suspension was diluted in 99 mL of a phosphate buffer before addition to the 9 mL of the 1% glycine solution. The phosphate buffer was DiLu-LoK™ Butterfields Phosphate Buffer, available from Hardy Diagnostics, of Santa Maria, Calif.
The surviving colonies are then counted. The data is plotted as S/So vs. time. So is the initial count of the bacteria in the above 10 mL solution which is at least 10^6 bacteria/mL, and S is the surviving bacteria from the above filter on the agar plate. The results of the experiments were presented in terms of log reductions. Log reduction is the difference between log(So) and log(S). As one example, if log(So)=6.2, and if there were 100 survivors, then the log(S)=2, and the log reduction was reported as 4.2.

solubility in water = assay type: physicochemical

O=Cc1ccc(Cl)cc1C=O [4-chloro-phthalaldehyde]
Log Reductions/mL ([1]; 2.7 w/v % (in 20% isopropanol), 20° C., 5 min): Total Kill | concentration effective to achieve a total kill of all bacteria ([1]; in five minutes, 20° C.): 0.2 to 2.7%

O=Cc1ccccc1C=O [OPA, phthalaldehyde, reference compound]
log reduction at 0.14 % ([1]; Mycolicibacter terrae, 5 min, 0.14%, 20° C., 5 min, read-out: Log Reductions/mL): 4.8 | log reduction at 0.28 % ([1]; Mycolicibacter terrae, 5 min, 0.28%, 20° C., 5 min, read-out: Log Reductions/mL): 5.5 | Germicidal Efficacy [1]: Good | solubility in water (solubility in water): about 5 % by weight

O=Cc1ccccc1C(O)S(=O)(=O)[O-].[Na+] (stereo not shown) [(2-formyl-phenyl)-hydroxy-methane sulfonic acid, sodium salt]
Log Reductions/mL ([1]; 9.1%, 20° C., 5 min): Confluent

O=Cc1ccc(C=O)cc1 [TPA, terephthalaldehyde, reference compound]
Log Reductions/mL ([1]; 0.2%, dissolved in 20% isopropanol, 20° C., 5 min): Confluent | Germicidal Efficacy [1]: Poor

4-pyridinyl-propanedial
Log Reductions/mL ([1]; Saturated (˜2.3% w/v), 5 min, 20° C.): 4.0 log reductions/mL

O=CC(C=O)c1cccc(C(=O)O)c1[N+](=O)[O-] [3-(1-formyl-2-oxoethyl)-2-nitro-benzoic acid]
log reduction at 2.1 % ([1]; Mycolicibacter terrae, 5 min, Saturated (˜2.1% w/v), 5 min, 20° C., read-out: Log Reductions/mL): 4

O=CC(C=O)c1ccccc1 [phenyl-propanedial]
Log Reductions/mL ([1]; 0.4%, 20° C., 60 min): Total Kill | Log Reductions/mL ([1]; 0.44%, 20° C., 60 min): Total Kill | Log Reductions/mL ([1]; 0.66%, 20° C., 15 min): Total Kill | Log Reductions/mL ([1]; 0.7%, 20° C., 15 min): Total Kill | Log Reductions/mL ([1]; (˜1%), 20° C., 5 min): 4.5 log reductions/mL | log reduction at 0.66 % ([1]; Mycolicibacter terrae, 5 min, 0.66%, 20° C., 5 min, read-out: Log Reductions/mL): < 2.5 | log reduction at 1 % ([1]; Mycolicibacter terrae, 5 min, ˜1%, 20° C., 5 min (Table 15), read-out: Log Reductions/mL): 4.5 | log reduction at 0.66 % ([1]; Mycolicibacter terrae, 10 min, 0.66%, 20° C., 10 min, read-out: Log Reductions/mL): 2.5 | log reduction at 0.7 % ([1]; Mycolicibacter terrae, 10 min, 0.7%, 20° C., 10 min, read-out: Log Reductions/mL): 2.5 | log reduction at 0.3 % ([1]; Mycolicibacter terrae, 0.5 h, 0.3%, 20° C., 30 min, read-out: Log Reductions/mL): 2.1 | log reduction at 0.33 % ([1]; Mycolicibacter terrae, 0.5 h, 0.33%, 20° C., 30 min, read-out: Log Reductions/mL): 2.1 | log reduction at 0.4 % ([1]; Mycolicibacter terrae, 0.5 h, 0.4%, 20° C., 30 min, read-out: Log Reductions/mL): 2.5 | log reduction at 0.44 % ([1]; Mycolicibacter terrae, 0.5 h, 0.44%, 20° C., 30 min, read-out: Log Reductions/mL): 2.5 | log reduction at 0.2 % ([1]; Mycolicibacter terrae, 1 h, 0.2%, 20° C., 60 min, read-out: Log Reductions/mL): 2.1 | log reduction at 0.22 % ([1]; Mycolicibacter terrae, 1 h, 0.22%, 20° C., 60 min, read-out: Log Reductions/mL): 2.1 | concentration effective to achieve a total kill ([1]; within 15 minutes, 20° C.): 0.4 to 0.7% | concentration effective to achieve a total kill of the bacteria ([1]; within 60 minutes, 20° C.): 0.3 to 0.4% | solubility in water (solubility in water): about 1%

O=Cc1ccc(Br)cc1C=O [4-bromo-phthalaldehyde]
Log Reductions/mL ([1]; 0.1%, 20° C., 30 minutes exposure): Total Kill | time to achieve a total kill of the bacteria ([1]; about 0.1%, 20° C.): 10 to 30 min

O=CC(c1ccccc1)C(O)S(=O)(=O)[O-].[Na+] (stereo not shown) [1-hydroxy-3-oxo-2-phenyl-propane-1-sulfonic acid, sodium salt]
Log Reductions/mL ([1]; 0.6%, 20° C., 60 min): Total Kill | log reduction at 0.6 % ([1]; Mycolicibacter terrae, 5 min, 0.6%, 20° C., 5 min, read-out: Log Reductions/mL): 2.1 | log reduction at 0.6 % ([1]; Mycolicibacter terrae, 20 min, 0.6%, 20° C., 20 min, read-out: Log Reductions/mL): 2.5 | log reduction at 0.6 % ([1]; Mycolicibacter terrae, 25 min, 0.6%, 20° C., 25 min, read-out: Log Reductions/mL): 2.9

O=Cc1cccc(C=O)c1 [IPA, isophthalaldehyde, reference compound]
Log Reductions/mL ([1]; 0.3%, dissolved in 20% isopropanol, 20° C., 5 min (Table 11)): Confluent | Log Reductions/mL ([1]; 0.3%, dissolved in 20% isopropanol, 20° C., 5 min (Table 15)): Confluent | Germicidal Efficacy [1]: Poor

O=Cc1ccc(F)cc1C=O [4-fluoro-phthalaldehyde]
Log Reductions/mL ([1]; 0.25%, 20° C., 60 minutes exposure): Total Kill | time to achieve a total kill of the bacteria ([1]; about 0.25%, 20° C.): 30 to 60 min
